Test results as given in patent US20220202805A1, “REBAMIPIDE FOR USE IN PREVENTION AND/OR TREATMENT OF SYNUCLEINOPATHIES” (SQUARE POWER LTD., priority 2019, published 2022).

System: β-sitosterol β-D-glucoside (BSSG) model
Assay: BSSG-induced Parkinson's disease model in rats, 10-month study
Format: in vivo, Male Sprague Dawley rats
Text: Increased intestinal permeability may lead to a leakage of various substances (such as bacterial toxins and xenobiotics), that are normally unable to cross the gut wall, from the intestine into the body proper, which may trigger synthesis of misfolded alpha-synuclein in the enteric wall and its transfer to the brain via n. vagus. The increased intestinal permeability is a typical consequence of epithelial dysfunction caused by all sorts of enteric inflammation. Therefore, induction of the inflammatory process may be used for setting of disease models. […] When fed to rodents, cycad flour triggers a progressive development of neurological deficits, with behavioral and cellular features that closely approximate those observed in patients. Besides neurotoxic properties, BSSG directly interacts with epithelium. It loosens tight junctions in mucosa via increase of intracellular calcium levels and thus increases permeability of epithelium.
Male Sprague Dawley rats were used in a study performed during 10 months. The animals were put on the baseline diet consisting of BSSG, 3 mg/day, 5 doses weekly p.o. in Month 1 to Month 4. […]
The observed parameters: • 1. Quantitative analysis of misfolded α-synuclein in substantia nigra lysate • 2. Quantitative analysis of misfolded α-synuclein in intestinal lysate • 3. Quantitative analysis of misfolded α-synuclein in olfactory bulb lysate • 4. […]
Final analysis at Month 10 to investigate neurodegenerative disease progression: after in vivo tests (locomotion, coordination, and cognitive) a subgroup of animals in each experimental group is sacrificed. […] In addition inflammatory markers such as TNF-α, IL-6, etc. in brain section samples and serum are measured.
In order to evaluate the overall efficacy of rebamipide in Parkinson's disease a Cumulative PD Score was calculated. […]

Compound: O=C(NC(Cc1cc(=O)[nH]c2ccccc12)C(=O)O)c1ccc(Cl)cc1 (stereo not drawn) [Rebamipide, 2-[(4-chlorobenzoyl)amino]-3-(2-oxo-1H-quinolin-4-yl)propanoic acid]
- alpha-synuclein aggregates in comparison with the placebo group (rebamipide 30 or 200 mg/kg/day p.o. in feed, BSSG 3 mg/day, histological analysis, preliminary results): reduced
- parameters tested including functional tests (rebamipide 30 or 200 mg/kg/day p.o. in feed, BSSG 3 mg/day, vs placebo, preliminary results): significant improvement
- Cumulative PD score, better as compared to the placebo group (weighted score of α-synuclein, functional, permeability, inflammatory, olfactory, retinal tests and mortality, rebamipide treated group vs placebo): more than 20%
